Among the data in patent publication US20070249670A1, “Glycogen Phosphorylase Inhibitor Compounds and Pharmaceutical Compositions Thereof” (SMITHKLINE BEECHAM CORPORATION, priority 2004, published 2007) are IC50 values, retold here.

The structures appear in SMILES notation. Structures can show the parent of a compound that is named as a salt.

For this test, the target named is T1, human liver glycogen phosphorylase a (HLGPa) (Homo sapiens, UniProt P06737).
T1 construct: creating a full-length cDNA fused at the 5′ end to codons for methionine-glycine-alanine-histidine; 6xHis tag (leader Met-Gly-Ala-His6-Gly-Gly) (N); made in house; host or cells: E. coli (bacterial expression plasmid pTXK1007LTev)
T1 sequence (P06737 2-847 limits assumed): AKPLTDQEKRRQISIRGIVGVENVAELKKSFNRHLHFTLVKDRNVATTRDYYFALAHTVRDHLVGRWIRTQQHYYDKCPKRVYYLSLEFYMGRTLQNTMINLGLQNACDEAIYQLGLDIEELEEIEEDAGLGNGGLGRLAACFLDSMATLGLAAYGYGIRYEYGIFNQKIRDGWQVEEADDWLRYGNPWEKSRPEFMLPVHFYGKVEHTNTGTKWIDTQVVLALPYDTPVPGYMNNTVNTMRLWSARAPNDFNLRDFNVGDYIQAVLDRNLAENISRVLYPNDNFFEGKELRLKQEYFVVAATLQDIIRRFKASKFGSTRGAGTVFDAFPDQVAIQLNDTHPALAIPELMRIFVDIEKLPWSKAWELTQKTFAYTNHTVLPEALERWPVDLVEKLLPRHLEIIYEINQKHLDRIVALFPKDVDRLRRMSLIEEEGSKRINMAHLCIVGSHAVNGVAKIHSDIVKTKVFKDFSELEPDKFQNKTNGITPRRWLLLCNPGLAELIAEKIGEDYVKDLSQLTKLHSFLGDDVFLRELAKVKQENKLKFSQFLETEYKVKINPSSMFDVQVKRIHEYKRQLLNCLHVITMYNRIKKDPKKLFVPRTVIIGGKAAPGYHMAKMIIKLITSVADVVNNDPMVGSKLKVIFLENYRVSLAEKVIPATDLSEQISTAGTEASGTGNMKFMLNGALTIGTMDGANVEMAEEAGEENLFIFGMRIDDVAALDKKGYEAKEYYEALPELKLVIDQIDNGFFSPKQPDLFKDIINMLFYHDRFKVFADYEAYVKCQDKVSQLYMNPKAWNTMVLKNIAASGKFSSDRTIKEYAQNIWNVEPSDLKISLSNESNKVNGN
Kind of test: Human liver glycogen phosphorylase a enzymatic activity assay (coupled, fluorescent resorufin readout, with and without 10 mM glucose). It counts as biochemical.

Where [1] appears, read: human liver glycogen phosphorylase a, table does not say whether with or without 10 mM glucose.
Setting [2] is: human liver glycogen phosphorylase a enzymatic activity assay.

Usually IC50 stands for the concentration needed to halve the response being measured. Low values mean greater potency in that assay, high ones weaker potency in that assay. Under setting [1], `CCCc1cc(C)c(NC(=O)Nc2cc(-c3ccc(OC)cc3)ccc2C(=O)N[C@@H](CC(=O)OCC)C(=O)O)c(C)c1` [Example 369, (2S)-2-({[3-({[(2,6-dimethyl-4-propylphenyl)amino]carbonyl}amino)-4′-(methyloxy)-4-biphenylyl]carbonyl}amino)-4-(ethyloxy)-4-oxobutanoic acid] showed a half-maximal inhibitory concentration (IC50) of 0.094 µM.
Turning to `CC[C@H](C)[C@H](NC(=O)c1cc(OC)c(OC)cc1NC(=O)Nc1c(C)cccc1Cl)C(=O)O` [Example 71, N-[2-({[(2-chloro-6-methylphenyl)amino]carbonyl}amino)-4,5-dimethoxybenzoyl]-L-isoleucine], the IC50 under setting [2] was found to be 22.3 µM.
For the compound `CC(C)c1cc(C(=O)O)c(NC(=O)Nc2c(Cl)cccc2Cl)s1` [Example 394, 2-({[(2,6-dichlorophenyl)amino]carbonyl}amino)-5-(1-methylethyl)-3-thiophenecarboxylic acid], the IC50 under setting [1] came to 19.3 µM.
For `O=C(Nc1cc2ccccc2nc1C(=O)N[C@H](C(=O)O)C1CCCCC1)Nc1c(Cl)cc(Cl)cc1Cl` [Example 299, (2S)-Cyclohexyl({[3-({[(2,4,6-trichlorophenyl)amino]carbonyl}amino)-2-quinolinyl]carbonyl}amino)ethanoic acid], the midpoint of inhibition under setting [1], the IC50, lay at 0.48 µM.
In the case of `O=C(Nc1cc(Cl)ccc1C(=O)N[C@H](C(=O)O)C1CCCCC1)Nc1c(Cl)cc(Cl)cc1Cl` [Example 171, (2S)-({[4-Chloro-2-({[(2,4,6-trichlorophenyl)amino]carbonyl}amino)phenyl]carbonyl}amino)(cyclohexyl)-ethanoic acid], under setting [2], the IC50 turned out to be 0.33 µM.
For `Cc1cc(C)c(NC(=O)Nc2cc(-c3ccc(N)cc3)ccc2C(=O)N[C@H](C(=O)O)C2CCCCC2)c(C)c1` [Example 199, (2S)-({[4′-Amino-3-({[(2,4,6-trimethylphenyl)amino]carbonyl}amino)-4-biphenylyl]carbonyl}amino)(cyclohexyl)ethanoic acid], the IC50 under setting [1] was determined as 0.004 µM.
For `CCCC[C@H](NC(=O)c1nc2ccccc2cc1NC(=O)Nc1c(Cl)cccc1Cl)C(=O)O` [Example 314, N-{[3-({[(2,6-dichlorophenyl)amino]carbonyl}amino)-2-quinolinyl]carbonyl}-L-norleucine], half-maximal inhibition under setting [1] (IC50) was put at 1.8 µM.
Turning to `COc1cc(NC(=O)Nc2c(C)cccc2Cl)c(C(=O)N[C@@H](CC2CCCCC2)C(=O)O)cc1OC` [Example 115, N-[2-({[(2-chloro-6-methylphenyl)amino]carbonyl}amino)-4,5-dimethoxybenzoyl]-3-cyclohexyl-L-alanine], the midpoint of inhibition under setting [2], the IC50, lay at 13 µM.
For the compound `O=C(Nc1cc2ccccc2cc1C(=O)NC1(C(=O)O)CCCCCC1)Nc1c(Cl)cc(Cl)cc1Cl` [Example 301, 1-({[3-({[(2,4,6-Trichlorophenyl)amino]carbonyl}amino)-2-naphthalenyl]carbonyl}amino)cycloheptanecarboxylic acid], half-maximal inhibition under setting [1] (IC50) was put at 0.35 µM.
The compound `Cc1cc(C)c(NC(=O)Nc2cc(-c3ccccc3)ccc2C(=O)N[C@H](C(=O)O)[C@@H](C)OC(C)(C)C)c(C)c1` [Example 528, O-(1,1-Dimethylethyl)-N-{[3-({[(2,4,6-trimethylphenyl)amino]carbonyl}amino)-4-biphenylyl]carbonyl}-L-threonine] yielded an IC50 under setting [2] of 0.003 µM.
For `CCOC(=O)C[C@H](NC(=O)c1ccc(-c2ccc(OC)cc2)cc1NC(=O)Nc1c(C)cc(Br)cc1C)C(=O)OCc1ccccc1` [Example 368, 4-ethyl 1-(phenylmethyl) N-{[3-({[(4-bromo-2,6-dimethylphenyl)amino]carbonyl}amino)-4′-(methyloxy)-4-biphenylyl]carbonyl}-L-aspartate], 5.58 µM corresponded to half-maximal inhibition under setting [1] (IC50).
Compound `O=C(Nc1cc2ccccc2cc1C(=O)NC(C(=O)O)[C@H]1CC[C@H](C(F)(F)F)CC1)Nc1c(Cl)cc(OC(F)(F)F)cc1Cl` (stereo partly drawn) [Example 466, {[(3-{[({2,6-dichloro-4-[(trifluoromethyl)oxy]phenyl}amino)carbonyl]amino}-2-naphthalenyl)carbonyl]amino}[trans-4-(trifluoromethyl)cyclohexyl]acetic acid] showed an IC50 under setting [2] of 0.013 µM.
On the same count and under the same terms, the same measure for `CCCC[C@H](NC(=O)c1sc(-c2ccc(OC)cc2)cc1NC(=O)Nc1c(C)cc(C)cc1C)C(=O)O` [Example 443, N-{[5-[4-(methyloxy)phenyl]-3-({[(2,4,6-trimethylphenyl)amino]carbonyl}amino)-2-thienyl]carbonyl}-L-norleucine]: 0.043 µM; for `Cc1cccc(C)c1NC(=O)Nc1cc2ccccc2cc1C(=O)N1CCC[C@H]1C(=O)O` [Example 20, 1-[3-({[(2,6-dimethylphenyl)amino]carbonyl}amino)-2-naphthoyl]-L-proline]: 2.24 µM.
`O=C(O)CNC(=O)c1cc2ccccc2cc1NC(=O)Nc1ccccc1Cl` [Example 12, N-[3-({[(2-chlorophenyl)amino]carbonyl}amino)-2-naphthoyl]glycine] displayed an IC50 under setting [2] of 2.52 µM.
Consider `Cc1cccc(Cl)c1NC(=O)Nc1cc2ccccc2cc1C(=O)N[C@@H](C)C(=O)O` [Example 33, N-[3-({[(2-chloro-6-methylphenyl)amino]carbonyl}amino)-2-naphthoyl]-L-alanine], for which, under setting [2], the IC50 was determined as 0.52 µM.
The same measure, in the same setting: in the case of `Cc1cccc(C)c1NC(=O)Nc1cc2ccccc2cc1C(=O)NCCCC(=O)O` [Example 492, 4-({[3-({[(2,6-dimethylphenyl)amino]carbonyl}amino)-2-naphthalenyl]carbonyl}amino)butanoic acid] it was 7.52 µM.
`Cc1cc(C)c(NC(=O)Nc2cc(-c3ccc4c(c3)OCO4)ccc2C(=O)N[C@H](C(=O)O)C2CCCCC2)c(C)c1` [Example 224, (2S)-({[4-(1,3-Benzodioxol-5-yl)-2-({[(2,4,6-trimethylphenyl)amino]carbonyl}amino)phenyl]carbonyl}amino)(cyclohexyl)-ethanoic acid] showed an IC50 under setting [1] of 0.003 µM.
On the same count and under the same terms, in the case of `Cc1cc(C)c(NC(=O)Nc2cc3ccccc3cc2C(=O)NC(C(=O)O)C2CCC(N)CC2)c(C)c1` (mixture of isomers) [Example 351, (cis and trans)-(4-aminocyclohexyl)({[3-({[(2,4,6-trimethylphenyl)amino]carbonyl}amino)-2-naphthalenyl]carbonyl}amino)acetic acid trifluoroacetate] it was 2.37 µM.
`Cc1cc(C)c(NC(=O)Nc2cc(-c3ccc(OC(F)(F)F)cc3)ccc2C(=O)N[C@H](C(=O)O)C2CCCCC2)c(C)c1` [Example 204, (2S)-Cyclohexyl({[4′-[(trifluoromethyl)oxy]-3-({[(2,4,6-trimethylphenyl)amino]carbonyl}amino)-4-biphenylyl]carbonyl}amino)ethanoic acid] registered a 50% inhibitory concentration (IC50) under setting [1] of 0.19 µM.
Take `COc1ccc(-c2cc(NC(=O)Nc3c(C)cc(C)cc3C)c(C(=O)NC3(C(=O)O)CCCCC3)s2)cc1` [Example 452, 1-({[5-[4-(methyloxy)phenyl]-3-({[(2,4,6-trimethylphenyl)amino]carbonyl}amino)-2-thienyl]carbonyl}amino)cyclohexanecarboxylic acid]: the IC50 under setting [2] stood at 0.003 µM.
As to `Cc1cc(C)c(NC(=O)Nc2cc3ccccc3cc2C(=O)N2CCN(C(=O)OC(C)(C)C)C[C@H]2C(=O)O)c(C)c1` [Example 254, (2S)-4-{[(1,1-dimethylethyl)oxy]carbonyl}-1-{[3-({[(2,4,6-trimethylphenyl)amino]carbonyl}amino)-2-naphthalenyl]carbonyl}-2-piperazinecarboxylic acid], the half-maximal inhibitory concentration (IC50) under setting [1] worked out at 0.81 µM.
